In publication PMC7714071, “Interaction of amyloid beta with humanin and acetylcholinesterase is modulated by ATP” (FEBS Open Bio, 2020):

Columns and labels:
A549 cells = settings: cited from earlier work
Description: Since addition of ATP appears to increase binding of HN to Aβ, and conversely, decreases the interaction of Aβ with AChE (Figs 3, 4, 5, 6), we tested the effect of added ATP on A549 and H1299 cell viability (Fig. 7). Exogenously added ATP at either 100 µM or 1 mM had no effect on viability of either A549 (Fig. 7A) or H1299 cells (Fig. 7B).

[1] = system: Aβ from A549 cell-conditioned media; assay: ELISA, HN (endogenous and exogenously added) and AChE bound to Aβ from A549 media on 82E1 antibody; assay type: binding, human; settings: Fig. 6A
Description: Human NSCLC cell lines, A549 (ATCC CCL‐185) and H1299 (ATCC CRL‐5803), were purchased from the American Type Culture Collection (ATCC, Manassas, VA, USA). Cells were seeded as we reported earlier in 5 mL HyClone Dulbecco's modified Eagle's medium/nutrient mixture F‐12 (DMEM/F12) (GE Healthcare Life Sciences, Pittsburgh, PA, USA), supplemented with 10% Fetalgro bovine growth serum (FBS; RMBIO, Missoula, MT, USA), 50 U·mL^−1 penicillin, and […] streptomycin (Invitrogen, Life Technologies, Carlsbad, CA, USA) in 25‐cm^2 tissue culture flasks, and allowed to grow overnight in an incubator at 37 °C, 95% humidity, and 5% CO2. The cells were counted after trypan blue staining, with a hemocytometer.
ELISAs were carried out as we previously reported. Nunc MaxiSorp 96‐well flat bottom plate (Thermo Fisher) wells were coated with samples as indicated. The plates were incubated overnight at 4 °C on a shaker to allow binding of the samples to the plate wells. After the incubation, the wells were washed 4× with TBST, filled with 400 µL blocking buffer (110 mM KCl, 5 mM NaHCO3, 5 mM MgCl2, 1 mM EGTA, 0.1 mM CaCl2, 20 mM HEPES, 1% BSA, pH 7.4), and incubated with shaking overnight at 4 °C. The wells were then washed 4× with TBST, and 100 µL of sample at the desired concentration was added to each well and incubated with shaking overnight at 4 °C. TBST was then used to wash the wells 4× before proceeding in one of two ways: (a) biotinylated samples were analyzed by adding 100 µL streptavidin–HRP conjugate in TBST (1 : 2500 dilution) to the samples followed by incubation for 3 h at RT on a shaker, or (b) samples without biotin were analyzed by adding 100 µL TBST containing the primary antibody as per the manufacturer's recommendation, incubating for 3 h at RT on a shaker, followed by washing the wells 4× with TBST. The secondary antibody in 100 µL TBST was then added to the samples following the manufacturer's recommendation and incubated for 1 h at RT on a shaker. […] The reaction was stopped with 100 µL 2 M H2SO4 after incubating at RT for 0.5–15 min, resulting in a yellow color change, measured by absorbance at 450 nm. To monitor nonspecific binding, negative control wells on the plates included, for example, bound Aβ peptide then adding all components, streptavidin‐HRP and TMB, but without addition of biotin‐HN. Some wells were coated with 2.5, 10, 50, 100, 500, and 5000 nM biotin‐HN or Aβ to allow conversion of the OD measurements to concentrations of bound material. Before analysis, the OD from the data was corrected for nonspecific binding by subtracting the mean background absorbance for the negative controls. Typically, in control wells incubated on each plate, the background binding is about 10–15% of the maximum binding seen with addition of biotin peptides or antibodies. Statistical analysis was determined by the […] PRISM 8.4.3 software (San Diego, CA, USA). Data were expressed as the mean ± SD. […]
Anti‐Aβ‐specific antibodies (82E1) were added (1 : 1000 dilution) to ELISA plate wells (Fig. 6). The wells were blocked, and then, 300 µL of the conditioned media (0.5 µg·µL^−1) of A549 or H1299 cells, 72 h postserum starvation, was added in the absence or presence of increasing HN concentrations, and the HN and AChE bound were detected using the corresponding specific primary antibodies. Fold change relative to controls that included all components but without the primary antibodies was calculated and fit with a nonlinear regression curve using the […] […]

| Compound | cell viability upon ID of HN (A549 cells; HN immunodepleted from A549 conditioned media) | apoptosis upon ID of HN (A549 cells; HN-ID A549 media) | HN concentration at which signal begins to level off ([1]; exogenous HN, A549 media) | binding of exogenous HN to Aβ ([1]; increasing exogenous HN, A549 media, 82E1) | effect of ATP on A549 cell viability (A549 cells; 100 μM or 1 mM ATP) | effect of ATP on binding of exogenously added HN to Aβ ([1]; 0.1 mM, 1 mM ATP (more pronounced at 1 mM), A549 media) | effect of ATP on binding of Aβ to AChE ([1]; A549 cell-conditioned media, 82E1) | effect of ATP on binding of endogenous HN to Aβ ([1]; increasing ATP (0.1 mM, 1 mM; more pronounced at 1 mM), A549 media, 82E1) |
| --- | --- | --- | --- | --- | --- | --- | --- | --- |
| Humanin [HN] | diminished cell viability | increased apoptosis | around 50 nM | increased binding to Aβ |  |  |  |  |
| Nc1ncnc2c1ncn2[C@@H]1O[C@H](COP(=O)(O)OP(=O)(O)OP(=O)(O)O)[C@@H](O)[C@H]1O [ATP, Adenosine triphosphate] |  |  |  |  | no effect | decreased binding of exogenously added HN | decreased upon addition of ATP | increased binding of endogenous HN |
